From patent publication US10799507B2, “5-(7H-pyrrolo[2,3-d]pyrimidin-4-yl)-5-azaspiro[2.5]octane-8-carboxylic acid derivatives as novel JAK kinase inhibitors” (LEO Pharma A/S, priority 2017, dated 2020) come the findings set out here.

What all share (assay type): biochemical
One experiment deals with JAK1 (Homo sapiens (Human), UniProt P23458). In words: JAK kinase assay (HTRF), JAK1. Particulars: catalytic domain, ATP at Km (7 μM). The method, then:
(§1) Human baculovirus-expressed JAK1, 2, 3 and TYK2 were purchased from Carna Biosciences, Inc. All four purified enzymes contain only the catalytic domain. JAK1 (aa 850-1154) and TYK2 (aa 871-1187) are expressed with an N-terminally fused GST-tag, and JAK2 and JAK3 with an N-terminally fused His-tag.
(§2) Inhibition of phosphorylation of a synthetic peptide was measured in an HTRF-based assay using the TK substrate-Biotin from the Cisbio HTRFKinEASE TK kit. First, 2 μl of TK solution (TK substrate-biotin in kinase buffer [1× enzymatic buffer from HTRFKinEASE TK kit, 1 mM DTT]) is added to a plate containing 1 μl prediluted compound (final assay concentration DMSO: 0.75%). Then, 5 μl kinase-ATP mix (prepared in kinase buffer) is added to the wells and the plates are incubated at RT for 20-30 min. For all four kinases a concentration of ATP that corresponded to the Km for ATP was used. The final concentrations of buffers, substrate, kinase and ATP were: JAK1: 50 mM Hepes buffer pH 7.0, 0.01% BSA, 10 mM MgCl2, 1 mM DTT, 7 μM ATP, 50 nM SEB, 1 μM TK Substrate-Biotin and 5 ng JAK1; JAK2: 50 mM Hepes buffer pH 7.0, 0.01% BSA, 5 mM MgCl2, 1 mM DTT, 4 μM ATP, 1 μM TK Substrate-Biotin and 0.1 ng JAK2; JAK3: 50 mM Hepes buffer pH 7.0, 0.01% BSA, 5 mM MgCl2, 1 mM DTT, 2 μM ATP, 1 μM TK Substrate-Biotin and 0.3 ng JAK3; TYK2: 50 mM Hepes buffer pH 7.0, 0.01% BSA, 5 mM MgCl2, 1 mM DTT, 13 μM ATP, 50 nM SEB, 1 μM TK Substrate-Biotin and 0.8 ng TYK2. Thereafter, the kinase reaction is stopped by adding 4 μl detection mix (final concentrations: 50 mM Hepes buffer pH 7.0, 0.01% BSA, 0.8 M KF, 20 mM EDTA, 42 nM Streptavidin-XL665 and 1:400 STK Ab Cryptate) and the plates are incubated overnight in the dark. The HTRF signal is read using an Envision plate reader.
(TR-FRET usually uses a lanthanide donor and a delayed reading to cut background.)

The next experiment has as its target JAK2 (Homo sapiens (Human), UniProt O60674). In words: JAK kinase assay (HTRF), JAK2. Particulars: catalytic domain, ATP at Km (4 μM). The method, then:
as §1, §2

A further experiment has as its target JAK3 (Homo sapiens (Human), UniProt P52333). Kind of experiment: JAK kinase assay (HTRF), JAK3. As to conditions: catalytic domain, ATP at Km (2 μM). The method, then: as §1, §2
(§3) In Table 1 selected JAK kinase inhibitory activities are listed along with analytical tR and observed M+H^+ data (UPLC-MS method 7).

The target in the next experiment is TYK2 (Homo sapiens (Human), UniProt P29597). In words: JAK kinase assay (HTRF), TYK2. Particulars: catalytic domain, ATP at Km (13 μM). The method, then: as §1, §2, §3
Sequence of TYK2 (P29597 871-1187): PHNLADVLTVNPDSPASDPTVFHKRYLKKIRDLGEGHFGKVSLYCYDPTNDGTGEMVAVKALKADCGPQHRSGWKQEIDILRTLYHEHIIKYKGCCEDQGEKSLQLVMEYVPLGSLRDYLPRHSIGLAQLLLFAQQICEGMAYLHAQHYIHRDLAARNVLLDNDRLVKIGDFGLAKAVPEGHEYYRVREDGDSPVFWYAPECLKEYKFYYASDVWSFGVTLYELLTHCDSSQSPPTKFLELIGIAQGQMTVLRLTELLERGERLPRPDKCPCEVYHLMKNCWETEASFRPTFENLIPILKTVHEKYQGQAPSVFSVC

Sequence of JAK2 (O60674 849-1124): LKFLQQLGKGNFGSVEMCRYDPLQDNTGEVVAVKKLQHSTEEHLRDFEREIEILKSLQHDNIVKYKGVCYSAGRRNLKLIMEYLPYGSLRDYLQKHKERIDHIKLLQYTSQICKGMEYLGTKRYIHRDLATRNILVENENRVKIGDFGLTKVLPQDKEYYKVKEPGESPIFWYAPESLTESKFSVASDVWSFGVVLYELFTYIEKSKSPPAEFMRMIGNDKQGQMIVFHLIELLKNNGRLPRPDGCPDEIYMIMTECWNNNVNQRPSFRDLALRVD
Sequence of JAK3 (P52333 822-1111): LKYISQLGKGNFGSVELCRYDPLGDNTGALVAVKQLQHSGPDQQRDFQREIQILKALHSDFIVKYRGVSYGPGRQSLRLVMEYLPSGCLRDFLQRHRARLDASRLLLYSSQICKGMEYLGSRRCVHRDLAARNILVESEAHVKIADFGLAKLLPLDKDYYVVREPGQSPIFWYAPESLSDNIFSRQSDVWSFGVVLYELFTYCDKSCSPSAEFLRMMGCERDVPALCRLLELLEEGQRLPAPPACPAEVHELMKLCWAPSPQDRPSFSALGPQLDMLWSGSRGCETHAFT
Sequence of JAK1 (P23458 850-1154): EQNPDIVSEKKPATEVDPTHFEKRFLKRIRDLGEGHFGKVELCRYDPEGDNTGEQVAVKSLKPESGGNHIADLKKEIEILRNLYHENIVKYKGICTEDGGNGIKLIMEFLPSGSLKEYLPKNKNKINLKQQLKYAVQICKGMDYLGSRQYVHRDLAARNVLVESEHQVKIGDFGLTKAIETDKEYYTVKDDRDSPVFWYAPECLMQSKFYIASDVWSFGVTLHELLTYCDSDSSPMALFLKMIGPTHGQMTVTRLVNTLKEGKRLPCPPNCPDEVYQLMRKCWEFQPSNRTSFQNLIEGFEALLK

`COc1cc(CNC(=O)[C@H]2CCN(c3ncnc4[nH]ccc34)CC23CC3)ccc1C#N` [Example 93, (8S)-N-[(4-cyano-3-methoxy-phenyl)methyl]-5-(7H-pyrrolo[2,3-d]pyrimidin-4-yl)-5-azaspiro[2.5]octane-8-carboxamide]: the EC50 (in general, the midpoint of the concentration-response curve) at JAK1 was 8.5 nM; at JAK2 it was 29.3 nM; at JAK3 it was 74.1 nM; on TYK2 it was 118 nM.

Turning to `O=C(N[C@H](CO)C(=O)OC1CCCC1)[C@H]1CCN(c2ncnc3[nH]ccc23)CC12CC2` [Example 96, cyclopentyl (2R)-3-hydroxy-2-[[(8S)-5-(7H-pyrrolo[2,3-d]pyrimidin-4-yl)-5-azaspiro[2.5]octane-8-carbonyl]amino]propanoate], the EC50 on JAK1 came out at 8.7 nM; at JAK2, 28.7 nM; on JAK3 it was 59.2 nM; at TYK2, 250 nM.

Turning to `COc1cc(C#N)ccc1[C@H](C)NC(=O)[C@H]1CCN(c2ncnc3[nH]ccc23)CC12CC2` [Example 97, (8S)-N-[(1S)-1-(4-cyano-2-methoxy-phenyl)ethyl]-5-(7H-pyrrolo[2,3-d]pyrimidin-4-yl)-5-azaspiro[2.5]octane-8-carboxamide], the EC50 on JAK1 is 8.7 nM; on JAK2, 36 nM; on JAK3, 226 nM; at TYK2, 315 nM.

Take `O=C(N[C@H](CO)C(=O)OCC1(CO)CCC1)[C@H]1CCN(c2ncnc3[nH]ccc23)CC12CC2` [Example 98, [1-(hydroxymethyl)cyclobutyl]methyl (2R)-3-hydroxy-2-[[(8S)-5-(7H-pyrrolo[2,3-d]pyrimidin-4-yl)-5-azaspiro[2.5]octane-8-carbonyl]amino]propanoate]: the EC50 came out at 8.8 nM at JAK1, 15 nM at JAK2, 44.3 nM on JAK3 and 177 nM at TYK2.

`C[C@H](NC(=O)C1CCN(c2ncnc3[nH]ccc23)CC12CC2)c1ccccc1` (stereo partly drawn) [Example 99, N-[(1S)-1-phenylethyl]-5-(7H-pyrrolo[2,3-d]pyrimidin-4-yl)-5-azaspiro[2.5]octane-8-carboxamide]: the EC50 came out at 9.1 nM at JAK1, 11.2 nM on JAK2, 31.1 nM at JAK3 and 399 nM at TYK2.

As to `O=C(N[C@@H](CO)c1ccc(F)cc1CO)[C@H]1CCN(c2ncnc3[nH]ccc23)CC12CC2` [Example 100, (8S)-N-[(1R)-1-[4-fluoro-2-(hydroxymethyl)phenyl]-2-hydroxy-ethyl]-5-(7H-pyrrolo[2,3-d]pyrimidin-4-yl)-5-azaspiro[2.5]octane-8-carboxamide], the EC50 at JAK1 came to 9.1 nM; at JAK2, 37.3 nM; at JAK3 it was 71.9 nM; at TYK2, 248 nM.

For `C[C@@H](NC(=O)[C@H]1CCN(c2ncnc3[nH]ccc23)CC12CC2)c1ccc(C#N)cc1F` [Example 101, (8S)-N-[(1R)-1-(4-cyano-2-fluoro-phenyl)ethyl]-5-(7H-pyrrolo[2,3-d]pyrimidin-4-yl)-5-azaspiro[2.5]octane-8-carboxamide], the EC50 at JAK1 was 9.3 nM; on JAK2, 72.8 nM; at JAK3, 157 nM; on TYK2, 516 nM.

As for `N#C[C@@H]1C[C@H]1CNC(=O)C1CCN(c2ncnc3[nH]ccc23)CC12CC2` (stereo partly drawn) [Example 102, N-[[(1R,2R)-2-cyanocyclopropyl]methyl]-5-(7H-pyrrolo[2,3-d]pyrimidin-4-yl)-5-azaspiro[2.5]octane-8-carboxamide], the EC50 was 9.5 nM at JAK1, 26.2 nM at JAK2, 35 nM on JAK3 and 531 nM on TYK2.

In the case of `C[C@H](NC(=O)[C@H]1CCN(c2ncnc3[nH]ccc23)CC12CC2)[C@@H](O)c1ccccn1` [Example 104, (8S)-N-[(1S,2R)-2-hydroxy-1-methyl-2-(2-pyridyl)ethyl]-5-(7H-pyrrolo[2,3-d]pyrimidin-4-yl)-5-azaspiro[2.5]octane-8-carboxamide], the EC50 on JAK1 is 10.1 nM; on JAK2 it was 30.3 nM; at JAK3 it was 163 nM; on TYK2, 149 nM.

For the molecule `N#Cc1cccc([C@H](O)CNC(=O)[C@H]2CCN(c3ncnc4[nH]ccc34)CC23CC3)c1` [Example 106, (8S)-N-[(2S)-2-(3-cyanophenyl)-2-hydroxy-ethyl]-5-(7H-pyrrolo[2,3-d]pyrimidin-4-yl)-5-azaspiro[2.5]octane-8-carboxamide], the EC50 was 10.2 nM on JAK1, 25.2 nM on JAK2, 44.7 nM on JAK3 and 110 nM at TYK2.

As to `C[C@H](NC(=O)[C@H]1CCN(c2ncnc3[nH]ccc23)CC12CC2)[C@H](O)c1ccc(F)cn1` [Example 107, (8S)-N-[(1S,2S)-2-(5-fluoro-2-pyridyl)-2-hydroxy-1-methyl-ethyl]-5-(7H-pyrrolo[2,3-d]pyrimidin-4-yl)-5-azaspiro[2.5]octane-8-carboxamide], the EC50 came to 10.3 nM on JAK1, 14.5 nM at JAK2, 57.7 nM at JAK3 and 125 nM on TYK2.

In the case of `N#Cc1ccc([C@@H](CO)NC(=O)[C@H]2CCN(c3ncnc4[nH]ccc34)CC23CC3)nc1` [Example 108, (8S)-N-[(1S)-1-(5-cyano-2-pyridyl)-2-hydroxy-ethyl]-5-(7H-pyrrolo[2,3-d]pyrimidin-4-yl)-5-azaspiro[2.5]octane-8-carboxamide], the EC50 on JAK1 was found to be 10.3 nM; on JAK2 it was 48.2 nM; on JAK3, 85.1 nM; at TYK2 it was 347 nM.

Consider `COc1cc(F)ccc1[C@H](CO)NC(=O)[C@H]1CCN(c2ncnc3[nH]ccc23)CC12CC2` [Example 109, (8S)-N-[(1R)-1-(4-fluoro-2-methoxy-phenyl)-2-hydroxy-ethyl]-5-(7H-pyrrolo[2,3-d]pyrimidin-4-yl)-5-azaspiro[2.5]octane-8-carboxamide], for which the EC50 at JAK1 amounted to 10.5 nM; on JAK2 it was 24.5 nM; at JAK3 it was 111 nM; on TYK2, 243 nM.

For `N#CCC1(CNC(=O)C2CCN(c3ncnc4[nH]ccc34)CC23CC3)CC1` (stereo not drawn) [Example 112, N-[[1-(cyanomethyl)cyclopropyl]methyl]-5-(7H-pyrrolo[2,3-d]pyrimidin-4-yl)-5-azaspiro[2.5]octane-8-carboxamide], the EC50 was 11.3 nM at JAK1, 32.7 nM at JAK2, 46 nM at JAK3 and 518 nM on TYK2.

Regarding `O=C(NCCc1ccccc1)C1CCN(c2ncnc3[nH]ccc23)CC12CC2` (stereo not drawn) [Example 114, N-phenethyl-5-(7H-pyrrolo[2,3-d]pyrimidin-4-yl)-5-azaspiro[2.5]octane-8-carboxamide], the EC50 was 11.7 nM at JAK1, 37 nM at JAK2, 64.8 nM on JAK3 and 858 nM on TYK2.

As for `O=C(NCC1CCC1)C1CCN(c2ncnc3[nH]ccc23)CC12CC2` (stereo not drawn) [Example 115, N-(cyclobutylmethyl)-5-(7H-pyrrolo[2,3-d]pyrimidin-4-yl)-5-azaspiro[2.5]octane-8-carboxamide], the EC50 at JAK1 amounted to 12.2 nM; on JAK2 it was 23.6 nM; on JAK3, 92.4 nM; at TYK2 it was 364 nM.

As for `O=C(N[C@H](CO)C(=O)OCC1(CO)CC1)[C@H]1CCN(c2ncnc3[nH]ccc23)CC12CC2` [Example 116, [1-(hydroxymethyl)cyclopropyl]methyl (2R)-3-hydroxy-2-[[(8S)-5-(7H-pyrrolo[2,3-d]pyrimidin-4-yl)-5-azaspiro[2.5]octane-8-carbonyl]amino]propanoate], the EC50 turned out to be 12.4 nM on JAK1, 24.7 nM at JAK2, 47.8 nM at JAK3 and 210 nM at TYK2.

On to `CC(CO)(NC(=O)C1CCN(c2ncnc3[nH]ccc23)CC12CC2)c1ccccc1` (stereo not drawn) [Example 118, N-(2-hydroxy-1-methyl-1-phenyl-ethyl)-5-(7H-pyrrolo[2,3-d]pyrimidin-4-yl)-5-azaspiro[2.5]octane-8-carboxamide], for which the EC50 at JAK1 turned out to be 13.1 nM; on JAK2, 24.3 nM; at JAK3 it was 77.7 nM; at TYK2 it was 832 nM.
